Assay [1] addresses organophosphate hydrolase (Brevundimonas diminuta, UniProt P0A434). The note with it: cited from earlier work.
The next assay has as its system maize callus. The assay is classed as cell-based.
The test system of assay [2] is organophosphate hydrolase. Type of assay: biochemical. Particulars: 0.5 mM amiprophos-methyl, 2 μg organophosphate hydrolase, scans every 30 seconds.
In assay [3] the test system is organophosphate hydrolase in maize callus. Description: Coumaphos plate screen: fluorescence of maize callus under ultraviolet light. The note with it: 3 ml of 1 mg/ml coumaphos per plate, two days post-transfer. Type of assay: cell-based.
Assay [4] deals with transgenic OPH and control callus cells. Briefly: Growth of callus cultures on haloxon plates (prospective Example 9, FIG. 6). The assay is classed as cell-based. Particulars: haloxon 1, 5, 10, 50, 100 and 500 μM, six weeks, percentage growth compared to control.

We go through eight compounds from patent US7060501B2 (priority 2002, dated 2006).

Regarding `COP(=O)(NC(C)=O)SC` (stereo not drawn) [acephate], the “rate of hydrolysis by organophosphate hydrolase compared with strong alkaline / non-enzymatic hydrolysis” value in assay [1] was “thousands of times greater”.
With `COP(=S)(NC(C)C)Oc1ccc(C)cc1[N+](=O)[O-]` (stereo not drawn) [amiprophos-methyl], the “effect on new growth from maize callus” value in the assay with maize callus is recorded as “inhibitory effect”. For the same compound, in assay [2], the “cleavage by organophosphate hydrolase, detected by absorbance” value is “results in the absorbance of light”.
As to `CCOP(=S)(OCC)Oc1ccc2c(C)c(Cl)c(=O)oc2c1` [coumaphos], the “effect on new growth from maize callus” value in the assay on maize callus was “inhibitory effect”. Also, the “fluorescence of non-transformed callus under ultraviolet light” value in assay [3] (non-transformed callus) was “did not”. Besides, in assay [3] (transformed callus), the “fluorescence of transformed callus under ultraviolet light” value is reported as “fluoresced”.
Turning to `Cc1c(Cl)c(=O)oc2cc(OP(=O)(OCCCl)OCCCl)ccc12` [haloxon], in assay [4], the “growth of transgenic OPH cells versus control cultures” value is reported as “ability of the transgenic OPH cells to grow at concentrations where control cultures would not”.
Consider `CCOC(=O)CC(SP(=S)(OC)OC)C(=O)OCC` (stereo not drawn) [malathion], for which, in assay [1], the “capability of the enzyme for hydrolysis” value is listed as “poor capability” and the “rate of hydrolysis by organophosphate hydrolase compared with strong alkaline / non-enzymatic hydrolysis” value is given as “significantly better”.
Consider `CCOP(=S)(OCC)SCn1c(=O)oc2cc(Cl)ccc21` [phosalone], for which, in assay [1], the “rate of hydrolysis by organophosphate hydrolase compared with strong alkaline / non-enzymatic hydrolysis” value is “thousands of times greater”.
With `CCCOP(=S)(OCCC)SCC(=O)N1CCCCC1C` (stereo not drawn) [piperophos], the “effect on new growth from maize callus” value with maize callus is “inhibitory effect”.
Turning to demeton-S-methyl, the “rate of hydrolysis by organophosphate hydrolase compared with strong alkaline / non-enzymatic hydrolysis” value in assay [1] was “thousands of times greater”.
